Data set [1] deals with HepG2 cells. In words: Fluorescence microscopy assay (Hoechst 33342). The format is cell-based, Human. The protocol: HepG2 cells were inoculated in duplicate at 3×10^5/well density in 6-well plate, and allowed to attach at 37°C for 24 hours. Afterwards, cells were treated with 10 μM HCPT, 25 μM emodin and specific concentration EM-d-Rha (0.1μM, 0.5μM, 2.5μM), respectively. Cell control group was set in the same way. […] Medium were exchanged as described previously. In the end, all medium were discarded and cells were digested with 2mL 0.25% Trypsin-EDTA solution at 37°C for 5 min. After cells were harvested, cells were washed with PBS twice followed by centrifuging at 300×g for 5 minutes. Finally, cells were re-suspended in 100μL cold PBS after the supernatant was discarded. Cells were cultured in the dark for 10 minutes at room temperature after adding 100μL 1mg/mL Hoechst 33342 staining solution. Cells were harvested again as described previously to discard the staining solution. Wash the harvested cells twice with PBS before applying to the clean glass slides. The morphological changes of cells nuclei were observed and photographed under the fluorescence microscope (Olympus, Japan) at 350 nm excitation wavelength. The experiment was repeated three times.

Data set [2] relates to HeLa cells. The data set is described as follows: MTT cell viability assay, HeLa. Particulars: Homo sapiens, HeLa; MTT, 72 hours; read-out: IC50 values, HeLa. The format is cell-based, Human. The protocol: (§1) The viability of cancer cells was evaluated by MTT assay. Briefly, cells were inoculated in 96-well culture plates at the density of 1×10^4/well with complete medium containing 10% fetal calf serum in a final volume of 0.2 mL. Cells were incubated at 37°C for at least 24 hours to allow optimal attachment. When the cells reached 60% confluence, they were treated with Cisplatin, HCPT and emodin rhamnopyranosides derivatives in various concentrations, and incubated in a humidity-controlled 5%CO2 incubator at 37°C for 72 hours. Medium were exchanged once every 24 hours. Cell control group and blank group were set up in the same manner, with each group having six parallel wells. Cell survival was assessed by directly adding 22 μL of 5mg/mL MTT to 0.2 mL medium. After three hours, the formazan precipitate was dissolved in 200μL isopropanol per well, and completely mixed under room temperature. Afterwards, the optical density of each well was detected at 570 nm wavelength by iMark microplate reader (Bio-rad,USA). This experiment was repeated at least three times.
In general terms: Tetrazolium assays rely on reduction of a dye to a coloured formazan, in cell work by metabolically active cells.

Data set [3] deals with HepG2 cells. In words: MTT cell viability assay, HepG2. Format: cell-based, Human. The following applies: Homo sapiens, HepG2; MTT, 72 hours; read-out: IC50 values, HepG2. The protocol: as §1
Data set [4] concerns MDCK cells. In words: MTT cell viability assay, MDCK. The format is cell-based, Canine. The following applies: Canis lupus familiaris, 72 hours. The protocol: as §1
The test system of data set [5] is OVCAR-3 cells. The data set is described as follows: MTT cell viability assay, OVCAR-3. Particulars: Homo sapiens, OVCAR-3; MTT, 72 hours; read-out: IC50 values, OVCAR-3. Format: cell-based, Human. The protocol: as §1
Data set [6] relates to A549 cells. In words: MTT cell viability assay, A549. The format is cell-based, Human. Particulars: Homo sapiens, A549; MTT, 72 hours; read-out: IC50 values, A549. The protocol: as §1
Data set [7] is described as follows: Solubility (structure-activity remark). The format is physicochemical. Particulars: one rhamnose introduced into emodin.

SMILES strings stand for the structures. ≈ marks a conversion by molar mass, not a printed value.

In general, IC50 refers to the concentration needed to halve the response being measured.

For `CC[C@@]1(O)C(=O)OCc2c1cc1n(c2=O)Cc2cc3cc(O)ccc3nc2-1` [HCPT], in data set [1] (HepG2, 2.5μM, 48h), the “Nuclear morphology, Hoechst 33342” value is “typical apoptotic nuclear morphology”.

Regarding `Cc1cc(O)c2c(c1)C(=O)c1cc(O)cc(O)c1C2=O` [S-1, 3-methyl-1,6,8-trihydroxyanthraquinone, reference compound], the IC50 in data set [2] was determined as 12.1 µg/mL (≈ 44.9 µM); in data set [3], 12.8 µg/mL (≈ 47.3 µM); in data set [4] it was 5.81 µg/mL (≈ 21.5 µM); in data set [5], 25.8 µg/mL (≈ 95.5 µM); in data set [6], 19.5 µg/mL (≈ 72.3 µM). The “Nuclear morphology, Hoechst 33342” value in data set [1] (HepG2, 25μM) is “displayed apoptotic morphological changes”.

Turning to `Cc1cc(O)c2c(c1)C(=O)c1cc(O[C@@H]3O[C@@H](C)[C@H](O)[C@@H](O)[C@H]3O)cc(O)c1C2=O` [S-2], the IC50 in data set [2], in data set [3], in data set [4], in data set [5] and in data set [6] was more than 20 µg/mL each time.

`CC(=O)O[C@@H]1[C@@H](O)[C@H](C)O[C@@H](Oc2cc(O)c3c(c2)C(=O)c2cc(C)cc(O)c2C3=O)[C@@H]1OC(C)=O` [S-3]: the half-maximal inhibitory concentration (IC50) in data set [2], in data set [3], in data set [4], in data set [5] and in data set [6] was more than 20 µg/mL each time. Moreover, the “Solubility of derivative relative to emodin” value in data set [7] is recorded as “improved”.

Take `CC(=O)O[C@@H]1[C@@H](O)[C@@H](OC(C)=O)[C@H](Oc2cc(O)c3c(c2)C(=O)c2cc(C)cc(O)c2C3=O)O[C@H]1C` [S-4]: the half-inhibitory concentration (IC50) in data set [2] was more than 20 µg/mL; in data set [3] it was more than 20 µg/mL; in data set [4], more than 20 µg/mL; in data set [5] it was more than 20 µg/mL; in data set [6] it was 9.27 µg/mL (≈ 18.5 µM).

Take `CC(=O)O[C@@H]1[C@@H](OC(C)=O)[C@@H](O)[C@H](Oc2cc(O)c3c(c2)C(=O)c2cc(C)cc(O)c2C3=O)O[C@H]1C` [S-5]: the half-inhibitory concentration (IC50) was 5.34 µg/mL (≈ 10.7 µM) in data set [2]; 1.32 µg/mL (≈ 2.64 µM) in data set [3]; 14.8 µg/mL (≈ 29.6 µM) in data set [4]; more than 20 µg/mL in data set [5]; 3.16 µg/mL (≈ 6.31 µM) in data set [6].

In the case of `CC(=O)O[C@@H]1[C@@H](O)[C@@H](O)[C@H](Oc2cc(O)c3c(c2)C(=O)c2cc(C)cc(O)c2C3=O)O[C@H]1C` [S-6], the IC50 in data set [2] was more than 20 µg/mL; in data set [3] it was more than 20 µg/mL; in data set [4] it was 21.1 µg/mL (≈ 46 µM); in data set [5] it was more than 20 µg/mL; in data set [6] it was 2.25 µg/mL (≈ 4.91 µM).

Consider `COc1cc(C)cc2c1C(=O)c1c(OC)cc(O[C@@H]3O[C@@H](C)[C@H](O)[C@@H](OC(C)=O)[C@H]3OC(C)=O)cc1C2=O` [S-9], for which the 50% inhibitory concentration (IC50) in data set [2] turned out to be 4.93 µg/mL (≈ 9.33 µM); in data set [3], 4.43 µg/mL (≈ 8.38 µM); in data set [4] it was 1.39 µg/mL (≈ 2.63 µM); in data set [5] it was 9.72 µg/mL (≈ 18.4 µM); in data set [6], 3.63 µg/mL (≈ 6.87 µM).
